This passage reports MIC results from patent US4477443A, “Tylosin derivatives, their preparation and pharmaceutical compositions containing them” (Zaidan Hojin Biselbutsu Kagaku Kenkyu Kai (Microbial …, priority 1981, dated 1984).

Holding throughout (assay): antimicrobial activity (MIC), Table I
What all share (assay type): cell-based

The test system of one assay is Staph. aureus 193. The settings on record: Staphylococcus aureus.
In a further assay the test system is Staph. aureus 209 P. The settings on record: Staphylococcus aureus.
The subject of the next assay is Staph. aureus MS 9861. The note with it: Staphylococcus aureus, MS9861.
The subject of a further assay is Sarcina lutea PCI 1001. The note with it: Micrococcus luteus, PCI1001.
Another assay has as its system B. subtilis NRRL B-558. The note with it: Bacillus subtilis, NRRLB558.
A further assay deals with Coryn. bovis 1810. The note with it: Corynebacterium bovis.
A further assay relates to E. coli NIHJ. The note with it: Escherichia coli.
For another assay, the system named is E. coli K-12. The settings on record: Escherichia coli, K12.
A further assay concerns E. coli K-12 R-5. The settings on record: Escherichia coli, K12R5.
For another assay, the system named is Kleb. pneumoniae PCI 602. The note with it: Klebsiella pneumoniae, PCI602.
The subject of assay [1] is Shigella dysenteriae JS 11910. The note with it: JS11910.
The test system of a further assay is Sal. enteritidis 1891. The note with it: Salmonella enterica.
[2] abbreviates: Staph. aureus 193, read-out: MIC.
Where [3] appears, read: Staph. aureus 209 P, read-out: MIC.
Setting [4] is: Staph. aureus MS 9861, read-out: MIC.
The mark [5] stands for this setting: Sarcina lutea PCI 1001, read-out: MIC.
Setting [6] is: B. subtilis NRRL B-558, read-out: MIC.
The mark [7] stands for this setting: Coryn. bovis 1810, read-out: MIC.
Setting [8] is: E. coli K-12 R-5, read-out: MIC.
The mark [9] stands for this setting: Kleb. pneumoniae PCI 602, read-out: MIC.
Where [10] appears, read: Sal. enteritidis 1891, read-out: MIC.

One may read the MIC as the lowest concentration found to suppress growth.

Values after ≈ are worked out from the molar mass of the structure shown. Read-outs that look alike come from different tables or passages of the source.

As for `CCC1OC(=O)CC(O)C(C)C(OC2OC(C)CC(N(C)C)C2O)C(CC=O)CC(C)C(=O)C=CC(C)=CC1CN1CCCCC1CO` (stereo not drawn) [Example 31, 23,4'-dideoxy-23-[2-(hydroxymethyl)piperidino]mycaminosyl tylonolide], the MIC in the assay on Staph. aureus 193 (setting [2]) is 0.39 µg/mL (≈ 0.574 µM); in the assay with Staph. aureus 209 P (setting [3]), less than 0.2 µg/mL; in the assay on Staph. aureus MS 9861 (setting [4]), 0.39 µg/mL (≈ 0.574 µM); in the assay with Sarcina lutea PCI 1001 (setting [5]) it was less than 0.2 µg/mL; with B. subtilis NRRL B-558 (setting [6]) it was 0.39 µg/mL (≈ 0.574 µM); in the assay with Coryn. bovis 1810 (setting [7]), 0.39 µg/mL (≈ 0.574 µM). The MIC was 0.39 µg/mL (≈ 0.574 µM) in the assay with E. coli NIHJ (E. coli NIHJ, read-out: MIC); 0.78 µg/mL (≈ 1.15 µM) with E. coli K-12 (E. coli K-12, read-out: MIC); 0.78 µg/mL (≈ 1.15 µM) in the assay on E. coli K-12 R-5 (setting [8]); 0.78 µg/mL (≈ 1.15 µM) with Kleb. pneumoniae PCI 602 (setting [9]); 0.78 µg/mL (≈ 1.15 µM) in assay [1]; 0.39 µg/mL (≈ 0.574 µM) in the assay with Sal. enteritidis 1891 (setting [10]).

For `CCC1OC(=O)CC(O)C(C)C(OC2OC(C)CC(N(C)C)C2O)C(CC=O)CC(C)C(=O)C=CC(C)=CC1CNC(=O)c1ccccc1` (stereo not drawn) [Example 76, 23-Benzoylamino-23,4'-dideoxymycaminosyl tylonolide], the MIC in the assay on Staph. aureus 193 (setting [2]) is 0.39 µg/mL (≈ 0.569 µM); with Staph. aureus 209 P (setting [3]), 0.39 µg/mL (≈ 0.569 µM); in the assay on Staph. aureus MS 9861 (setting [4]), 0.78 µg/mL (≈ 1.14 µM); with Sarcina lutea PCI 1001 (setting [5]), less than 0.2 µg/mL; in the assay with B. subtilis NRRL B-558 (setting [6]), 0.78 µg/mL (≈ 1.14 µM); in the assay with Coryn. bovis 1810 (setting [7]), less than 0.2 µg/mL. For the same compound, the MIC in the assay on E. coli NIHJ (E. coli NIHJ, read-out: MIC) stood at 3.12 µg/mL (≈ 4.56 µM); with E. coli K-12 (E. coli K-12, read-out: MIC), 6.25 µg/mL (≈ 9.13 µM); in the assay on E. coli K-12 R-5 (setting [8]) it was 6.25 µg/mL (≈ 9.13 µM); in the assay with Kleb. pneumoniae PCI 602 (setting [9]) it was 3.12 µg/mL (≈ 4.56 µM); in [1], 1.56 µg/mL (≈ 2.28 µM); in the assay with Sal. enteritidis 1891 (setting [10]) it was 3.12 µg/mL (≈ 4.56 µM).

Take `CCOC(=O)NCC1C=C(C)C=CC(=O)C(C)CC(CC=O)C(OC2OC(C)CC(N(C)C)C2O)C(C)C(O)CC(=O)OC1CC` (stereo not drawn) [Example 78, 23,4'-Dideoxy-23-ethoxycarbonylaminomycaminosyl tylonolide]: the MIC with Staph. aureus 193 (setting [2]) is less than 0.2 µg/mL; with Staph. aureus 209 P (setting [3]) it was less than 0.2 µg/mL; with Staph. aureus MS 9861 (setting [4]), 0.39 µg/mL (≈ 0.597 µM); in the assay on Sarcina lutea PCI 1001 (setting [5]) it was less than 0.2 µg/mL; in the assay with B. subtilis NRRL B-558 (setting [6]), 0.39 µg/mL (≈ 0.597 µM); in the assay with Coryn. bovis 1810 (setting [7]), less than 0.2 µg/mL. The MIC in the assay on E. coli NIHJ (E. coli NIHJ, read-out: MIC) was 3.12 µg/mL (≈ 4.78 µM); in the assay on E. coli K-12 (E. coli K-12, read-out: MIC) it was 12.5 µg/mL (≈ 19.1 µM); in the assay on E. coli K-12 R-5 (setting [8]), 6.25 µg/mL (≈ 9.57 µM); in the assay with Kleb. pneumoniae PCI 602 (setting [9]), 3.12 µg/mL (≈ 4.78 µM); in [1], 1.56 µg/mL (≈ 2.39 µM); in the assay with Sal. enteritidis 1891 (setting [10]), 3.12 µg/mL (≈ 4.78 µM).

As to `CCC1OC(=O)CC(O)C(C)C(OC2OC(C)C(O)C(N(C)C)C2O)C(CC=O)CC(C)C(=O)C=CC(C)=CC1CN(C)CCc1ccccc1` (stereo not drawn) [Example 26, 23-deoxy-23-(N-methylphenethylamino)mycaminosyl tylonolide], the MIC is 0.2 µg/mL (≈ 0.28 µM) with Staph. aureus 193 (setting [2]); less than 0.2 µg/mL in the assay with Staph. aureus 209 P (setting [3]); 12.5 µg/mL (≈ 17.5 µM) in the assay with Staph. aureus MS 9861 (setting [4]); less than 0.2 µg/mL with Sarcina lutea PCI 1001 (setting [5]); 50 µg/mL (≈ 69.9 µM) with B. subtilis NRRL B-558 (setting [6]); less than 0.2 µg/mL with Coryn. bovis 1810 (setting [7]). Also, the minimum inhibitory concentration (MIC) in the assay with E. coli NIHJ (E. coli NIHJ, read-out: MIC) came to 3.12 µg/mL (≈ 4.36 µM); in the assay on E. coli K-12 (E. coli K-12, read-out: MIC), 12.5 µg/mL (≈ 17.5 µM); with E. coli K-12 R-5 (setting [8]) it was 12.5 µg/mL (≈ 17.5 µM); in the assay with Kleb. pneumoniae PCI 602 (setting [9]), 0.78 µg/mL (≈ 1.09 µM); in assay [1], 3.12 µg/mL (≈ 4.36 µM); with Sal. enteritidis 1891 (setting [10]), 3.12 µg/mL (≈ 4.36 µM).

As to `CCC1OC(=O)CC(O)C(C)C(OC2OC(C)CC(N(C)C)C2O)C(CC=O)CC(C)C(=O)C=CC(C)=CC1CNC(=O)Oc1ccccc1` (stereo not drawn) [Example 80, 23,4'-Dideoxy-23-phenoxycarbonylaminomycaminosyl tylonolide], the MIC in the assay with Staph. aureus 193 (193) is less than 0.2 µg/mL; against Staph. aureus 209 P (209P), less than 0.2 µg/mL; against Staph. aureus MS 9861, less than 0.2 µg/mL; in the assay with Sarcina lutea PCI 1001 it was less than 0.2 µg/mL; with B. subtilis NRRL B-558 it was 0.39 µg/mL (≈ 0.556 µM); against Coryn. bovis 1810 (1810) it was less than 0.2 µg/mL. Further, the minimum inhibitory concentration (MIC) in the assay on E. coli NIHJ was found to be 3.12 µg/mL (≈ 4.45 µM); against E. coli K-12 it was 6.25 µg/mL (≈ 8.92 µM); against E. coli K-12 R-5, 6.25 µg/mL (≈ 8.92 µM); in the assay on Kleb. pneumoniae PCI 602, 1.56 µg/mL (≈ 2.23 µM); in [1] it was 0.78 µg/mL (≈ 1.11 µM); with Sal. enteritidis 1891 (ENTERITIDIS) it was 1.56 µg/mL (≈ 2.23 µM).

Take `CCC1OC(=O)CC(O)C(C)C(OC2OC(C)CC(N(C)C)C2O)C(CC=O)CC(C)C(=O)C=CC(C)=CC1CN(CC)C(=O)Oc1ccccc1` (stereo not drawn) [Example 85, 23,4'-Dideoxy-23-N-ethylphenoxycarbonylaminomycaminosyl tylonolide]: the minimal inhibitory concentration (MIC) was 0.39 µg/mL (≈ 0.535 µM) with Staph. aureus 193 (193); less than 0.2 µg/mL in the assay on Staph. aureus 209 P (209P); 0.39 µg/mL (≈ 0.535 µM) in the assay on Staph. aureus MS 9861; less than 0.2 µg/mL against Sarcina lutea PCI 1001; less than 0.2 µg/mL with B. subtilis NRRL B-558; less than 0.2 µg/mL in the assay on Coryn. bovis 1810 (1810). The MIC in the assay with E. coli NIHJ was 12.5 µg/mL (≈ 17.1 µM); with E. coli K-12, 12.5 µg/mL (≈ 17.1 µM); with E. coli K-12 R-5 it was 12.5 µg/mL (≈ 17.1 µM); in the assay with Kleb. pneumoniae PCI 602, 3.12 µg/mL (≈ 4.28 µM); in [1] it was 0.78 µg/mL (≈ 1.07 µM); against Sal. enteritidis 1891 (ENTERITIDIS) it was 12.5 µg/mL (≈ 17.1 µM).
